Reference: patent publication EP0070133B1, “Secondary phenylethanol amines, processes for their preparation and their pharmaceutical application” (priority 1981, dated 1983)
Counter-ions that a name gives are not always drawn. Like-named read-outs stand apart in the source and are kept apart here.

Assays:
Female CFLP mice [1] = assay: Effect on energy expenditure and food intake of mice; format: in vivo; details: Mus musculus; for response vs control in vivo at 24.6 mg/kg / response vs control in vivo at 30.2 mg/kg / response vs control in vivo at 28.9 mg/kg / response vs control in vivo at 24.2 mg/kg / response vs control in vivo at 22 mg/kg / response vs control in vivo at 25.5 mg/kg / response vs control in vivo at 26.4 mg/kg / response vs control in vivo at 22.6 mg/kg / response vs control in vivo at 26.3 mg/kg: po, 21 h; for response vs control in vivo at 18.4 mg/kg: 18.4 mg/kg po, mice, 21 hours after dosing, % of mice dosed with water
Method: Female CFLP mice each weighing approximately 24 g, were given food and water ad lib before and during the experiment. The compounds were dissolved in water by addition of one mole of hydrochloric acid per mole of compound and these solutions were administered orally to each of 12 mice. A further 12 mice were dosed orally with water. The mice were placed in boxes through which air was drawn and the oxygen content of the air leaving the boxes was measured. […] The food intake of the mice was measured over this same period of 21 hours. The results are expressed as a percentage of the mean food intake or rate of energy expenditure of the mice dosed with water.

Female CFLP mice [2] = assay: Anti-hyperglycaemic activity: subcutaneous glucose load in fasted mice, area under blood glucose curve; format: in vivo; details: glucose 1 g/kg sc, 2 hour period, vs water control
Method: Female CFLP mice, each weighing approximately 25 g, were fasted for 24 hours prior to the study. The compounds under study were administered orally as an aqueous solution to each of 6 mice. 6 mice were given water as a control. 30 minutes later a blood sample (20 µl) was obtained from the tail for the analysis of blood glucose. Immediately after taking this blood sample, glucose (1 g/kg body weight) was administered subcutaneously to each mouse. Blood samples were then obtained from each mouse at 30 minute intervals for 120 minutes.
Compounds that produced a significant (P<0.05) reduction of blood glucose, compared with control mice given water, at any time interval, were considered active. The area under the blood glucose curve over the 2 hour period after the administration of the glucose was calculated for each compound and compared with the value for control animals.

[3] = read-out: Mean Energy Expenditure (%)

Question: For `CNCCOc1ccc(CC(C)NCC(O)c2cc3ccccc3o2)cc1.Cl.Cl` (stereo not shown) [Example 4, N-[2-(4-(2-Methylaminoethoxy)phenyl)-1-methylethyl]-2-hydroxy-2-(2-benzofuranyl) ethanamine dihydrochloride], which response vs control in vivo at 24.6 mg/kg (Female CFLP mice [1]; [3]) is on record?
Answer: 110%

Question: What about the response vs control in vivo at 24.6 mg/kg (Female CFLP mice [1]; read-out: Mean Food Intake (%)) of the same compound?
Answer: 76%

Question: And the “Reduction in area under Blood glucose curve (%)” value (“Reduction in area … (%)” for short) (Female CFLP mice [2]; 2.5 μ moles/kg po)?
Answer: 18%

Question: How did the response vs control in vivo at 30.2 mg/kg (Female CFLP mice [1]; [3]) turn out when `Br.Br.CNCCOc1ccc(CC(C)NCC(O)c2cccc(Cl)c2)cc1F` (stereo not shown) [Example 5, N-[2-(3-Fluoro-4-(2-methylaminoethoxy)phenyl)-1-methylethyl)-2-hydroxy-2-(3-chlorophenyl) ethanamine dihydrobromide] was run?
Answer: 134%

Question: What about the response vs control in vivo at 30.2 mg/kg (Female CFLP mice [1]; read-out: Mean Food Intake (%)) of the same compound?
Answer: 102%

Question: And the “Reduction in area … (%)” value (Female CFLP mice [2]; 1 μ moles/kg po)?
Answer: 38%

Question: Which response vs control in vivo at 28.9 mg/kg (Female CFLP mice [1]; [3]) does the source give for `Br.Br.CCc1cccc(C(O)CNC(C)Cc2ccc(OCCNC)cc2)c1` (stereo not shown) [Example 6, N-[2-(4-(2-Methylaminoethoxy)phenyl)-1-methylethyl]-2-hydroxy-2-(3-ethylphenyl)ethanamine dihydrobromide] here?
Answer: 97%

Question: And the response vs control in vivo at 28.9 mg/kg (Female CFLP mice [1]; read-out: Mean Food Intake (%))?
Answer: 98%

Question: And the “Reduction in area … (%)” value (Female CFLP mice [2]; 50 μ moles/kg po)?
Answer: 36.5%

Question: How did the response vs control in vivo at 24.2 mg/kg (Female CFLP mice [1]; [3]) turn out when `CNCCOc1ccc(CC(C)NCC(O)c2ccc(Cl)cc2)cc1` (stereo not shown) [Example 12, N-[2-(4-(2-Methylaminoethoxy)phenyl)-1-methylethyl]-2-hydroxy-2-(4-chlorophenyl)ethanamine dihydrochloride] was run?
Answer: 120%

Question: And the response vs control in vivo at 24.2 mg/kg (Female CFLP mice [1]; read-out: Mean Food Intake (%))?
Answer: 99%

Question: How did the response vs control in vivo at 22 mg/kg (Female CFLP mice [1]; [3]) turn out when `CNC(=O)NCCOc1ccc(CC(C)NCC(O)c2cccc(C(F)(F)F)c2)cc1` (stereo not shown) [Example 17, N-[2-(4-(2-Methylaminocarbonylaminoethoxy)phenyl)-1-methylethyl]-2-hydroxy-2-(3-trifluoromethylphenyl)ethanamine] was run?
Answer: 114%

Question: And the response vs control in vivo at 22 mg/kg (Female CFLP mice [1]; read-out: Mean Food Intake (%))?
Answer: 87%

Question: How did the response vs control in vivo at 25.5 mg/kg (Female CFLP mice [1]; [3]) turn out when `CC(Cc1ccc(OCCN2CCCC2)cc1)NCC(O)c1cccc(C(F)(F)F)c1` (stereo not shown) [Example 25, N-[2-(4-(2-11-Pyrrolidine)ethoxy)phenyl)-1-methylethyl]-2-hydroxy-2-(3-trifluoromethylphenyl)ethanamine dihydrochloride] was run?
Answer: 117%

Question: What about the response vs control in vivo at 25.5 mg/kg (Female CFLP mice [1]; read-out: Mean Food Intake (%)) of the same compound?
Answer: 87%

Question: With `CC(Cc1ccc(OCCN2CCCCC2)cc1)NCC(O)c1cccc(C(F)(F)F)c1` (stereo not shown) [Example 26, N-[2-(4-(2-(1-Piperidine)ethoxy)phenyl)-1-methylethyl]-2-hydroxy-2-(3-trifluoromethylphenyl)ethanamine dihydrochloride monohydrate] as the compound, how does the response vs control in vivo at 26.4 mg/kg (Female CFLP mice [1]; [3]) read?
Answer: 125%

Question: And the response vs control in vivo at 26.4 mg/kg (Female CFLP mice [1]; read-out: Mean Food Intake (%))?
Answer: 63%

Question: How did the response vs control in vivo at 24.2 mg/kg (Female CFLP mice [1]; [3]) turn out when `CCNCCOc1ccc(CC(C)NCC(O)c2cccc(C(F)(F)F)c2)cc1` (stereo not shown) [Example 27, N-[2-(4-(2-Ethylaminoethoxy)phenyll-1-methylethyl]-2-hydroxy-2-(3-trifluoromethylphenyl)ethanaminedihydrochloride] was run?
Answer: 143%

Question: And the response vs control in vivo at 24.2 mg/kg (Female CFLP mice [1]; read-out: Mean Food Intake (%))?
Answer: 100%

Question: Which response vs control in vivo at 22.6 mg/kg (Female CFLP mice [1]; [3]) does the source give for `CC(Cc1ccc(OCCN2CCOCC2)cc1)NCC(O)c1cccc(C(F)(F)F)c1` (stereo not shown) [Example 30, N-[2-(4-(2-(1-Morpholine)ethoxy)phenyl)-1-methylethyl]-2-hydroxy-2-(3-trifluoromethylphenyl)ethanamine] here?
Answer: 125%

Question: And the response vs control in vivo at 22.6 mg/kg (Female CFLP mice [1]; read-out: Mean Food Intake (%))?
Answer: 95%

Question: What does the source list for `CNCCCCCCOc1ccc(CC(C)NCC(O)c2cccc(C(F)(F)F)c2)cc1` (stereo not shown) [Example 33, N-[2-(4-(6-Methylaminohexyloxy)phenyl)-1-methylethyl]-2-hydroxy-2-(3-trifluoromethylphenyl)-ethanamine dihydrochloride]?
Answer: response vs control in vivo at 26.3 mg/kg (Female CFLP mice [1]; [3]): 131%; response vs control in vivo at 26.3 mg/kg (Female CFLP mice [1]; read-out: Mean Food Intake (%)): 80%

Question: What does the source list for `NCCOc1ccc(CCNCC(O)c2cccc(C(F)(F)F)c2)cc1` (stereo not shown) [Example 34, N-[2-(4-(2-Aminoethoxy)phenyl)ethyl]-2-hydroxy-2-(3-trifluoromethylphenyl)ethanamine]?
Answer: response vs control in vivo at 18.4 mg/kg (Female CFLP mice [1]; [3]): 117%; response vs control in vivo at 18.4 mg/kg (Female CFLP mice [1]; read-out: Mean Food Intake (%)): 103%
